Laboratory results taken from patent US7816330B2, “Substituted benzimidazole-, benztriazole-, and benzimidazolone-O-glucosides” (Janssen Pharmaceutica NV, priority 2003, dated 2010).

What was measured:
[1] = target: T1, human SGLT2 (Homo sapiens, UniProt P31639); experiment: Cell-based assay for sodium-dependent glucose transport (14C-AMG uptake), CHOK-SGLT2; conditions: CHO-K1 cells stably expressing human SGLT2, Na-dependent 14C-AMG uptake; for inhibition at 10 µM: read-out: CHOK-SGLT2 % Inh. @10 μM
T1 construct: expressed in transfected cells; pcDNA vector)
T1 sequence (P31639 1-672): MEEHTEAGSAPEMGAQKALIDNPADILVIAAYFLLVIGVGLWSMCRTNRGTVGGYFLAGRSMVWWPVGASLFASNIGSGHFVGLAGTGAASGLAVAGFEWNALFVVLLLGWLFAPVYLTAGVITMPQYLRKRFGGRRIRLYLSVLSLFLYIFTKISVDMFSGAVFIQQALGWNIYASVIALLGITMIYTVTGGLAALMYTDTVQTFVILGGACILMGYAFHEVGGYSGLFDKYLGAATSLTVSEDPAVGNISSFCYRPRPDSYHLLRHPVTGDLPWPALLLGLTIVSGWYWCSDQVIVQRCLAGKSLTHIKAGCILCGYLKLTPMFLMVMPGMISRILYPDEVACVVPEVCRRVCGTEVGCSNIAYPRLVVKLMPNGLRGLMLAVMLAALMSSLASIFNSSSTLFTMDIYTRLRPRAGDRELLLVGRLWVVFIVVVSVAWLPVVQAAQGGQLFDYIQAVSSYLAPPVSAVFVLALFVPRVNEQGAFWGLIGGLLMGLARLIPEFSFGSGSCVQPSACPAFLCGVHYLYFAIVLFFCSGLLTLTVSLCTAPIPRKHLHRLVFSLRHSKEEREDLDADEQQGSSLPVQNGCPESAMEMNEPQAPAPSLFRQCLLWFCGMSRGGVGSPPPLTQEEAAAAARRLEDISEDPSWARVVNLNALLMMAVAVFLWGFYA
Description: (§1) Cloning of the human SGLT1 and human SGLT2 cDNAs and construction of the mammalian expression vector: The human SGLT1 cDNA (Genbank M24847) was cloned from human small intestine. Human SGLT2 cDNA (Genbank M95549) was cloned from human kidney. Both full cDNAs were subcloned into pcDNA and sequenced to verify the integrity of the construct.
(§2) Generation of CHO-K1 cells stably expressing human SGLT1 or human SGLT2: Transfection of CHO-K1 cells was performed using DMRIE-C reagent (Life Technologies, Gaithersburg, Md.). Transfectants were then selected in the presence of the antibiotic G418 (Gibco-BRL, Grand Island, N.Y.) at 400 μg/ml. Individual clones were then characterized using the functional assay described below.
(§3) Cell-based assay for sodium-dependent glucose transport: Cell lines stably expressing human SGLT1 or SGLT2 were then used for functional analysis of Na+-dependent glucose uptake. Briefly, cells were plated at a density of 65,000 cells per well in a 96-well plate and allowed to grow for 48 hours. Cells were subsequently washed one time with Assay Buffer (50 mM HEPES pH 7.4, 20 mM Tris, 5 mM KCl, 1 mM MgCl2, 1 mM CaCl2 and 137 mM NaCl) and treated with compound in the absence or presence of NaCl for 15 minutes. Cells were then labeled with ^14C-α-methylglucopyranoside (AMG, Sigma, St. Louis, Mo.), a non-metabolizable glucose analog specific for sodium-dependent glucose transporters as previously described (Peng, H. and Lever J. E. Post-transcriptional regulation of Na^+/glucose cotransporter (SGLT1) gene expression in LLC-PK1 cells. J Biol Chem 1995; 270:20536-20542.). After 2 hours the labelled cells were washed three times with ice-cold PBS. After aspiration, cells were solubilized using Microscint 20 (Packard, Meriden, Conn.) and Na-dependent ^14C-AMG uptake was quantified by measuring radioactivity. Plates were counted in a TopCount (Packard, Meriden, Conn.). Results are reported as the % inhibition or IC50 value from a representative experiment. Variability for the functional assay was typically within 20%.

[2] = target: T2, human SGLT1 (Homo sapiens, UniProt P13866); experiment: Cell-based assay for sodium-dependent glucose transport (14C-AMG uptake), CHOK-SGLT1; conditions: CHO-K1 cells stably expressing human SGLT1, Na-dependent 14C-AMG uptake; for inhibition at 10 µM: read-out: CHOK-SGLT1 % Inh. @10 μM
T2 construct: expressed in transfected cells; pcDNA vector)
T2 sequence (P13866 1-664): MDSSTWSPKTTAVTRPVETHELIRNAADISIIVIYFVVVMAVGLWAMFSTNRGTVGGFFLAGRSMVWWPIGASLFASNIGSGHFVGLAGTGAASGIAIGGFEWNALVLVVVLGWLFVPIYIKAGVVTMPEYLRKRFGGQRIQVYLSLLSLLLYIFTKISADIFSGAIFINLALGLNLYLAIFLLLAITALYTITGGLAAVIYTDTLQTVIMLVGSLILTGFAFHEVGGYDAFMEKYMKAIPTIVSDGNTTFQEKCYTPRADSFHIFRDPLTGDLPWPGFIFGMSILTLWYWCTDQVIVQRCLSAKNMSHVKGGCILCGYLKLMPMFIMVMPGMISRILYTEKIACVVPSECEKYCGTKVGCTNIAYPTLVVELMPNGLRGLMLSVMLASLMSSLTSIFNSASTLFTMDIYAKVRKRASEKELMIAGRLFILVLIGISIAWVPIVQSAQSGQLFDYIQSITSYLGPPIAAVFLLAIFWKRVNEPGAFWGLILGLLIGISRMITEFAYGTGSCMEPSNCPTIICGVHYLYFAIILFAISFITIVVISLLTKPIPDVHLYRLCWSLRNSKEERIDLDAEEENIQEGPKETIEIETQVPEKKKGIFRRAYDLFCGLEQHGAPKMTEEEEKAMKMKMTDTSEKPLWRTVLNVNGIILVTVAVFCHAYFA
Description: as §1, §2, §3

| SMILES | inhibition at 10 µM [1] [%] | inhibition at 10 µM [2] [%] | IC50 [1] [nM] | IC50 [2] [nM] |
| --- | --- | --- | --- | --- |
| O=c1[nH]c2cccc(OC3OC(CO)C(O)C(O)C3O)c2n1CCc1ccc2ccccc2c1 [Example 1, 2-[3-(2-Naphthalen-2-yl-ethyl)-1,3-dihydro-benzoimidazol-2-one-4-yloxy]-β-D-glucopyranoside] | 31 |  |  |  |
| OCC1OC(Oc2cccc3ncn(CCc4ccc5ccccc5c4)c23)C(O)C(O)C1O [Example 2, 2-[3-(2-naphthalen-2-yl-ethyl)-3H-benzoimidazol-4-yloxy]-β-D-glucopyranoside] |  | 55 | 334 |  |
| CCc1ccc(Cn2c(=O)[nH]c3cccc(OC4OC(CO)C(O)C(O)C4O)c32)cc1 [Example 3, 2[3-(4-Ethyl-benzyl)-1,3-dihydro-benzoimidazol-2-one-4-yloxy]-β-D-glucopyranoside] |  | 1 | 1020 |  |
| CCc1ccc(Cn2cnc3cccc(OC4OC(CO)C(O)C(O)C4O)c32)cc1 [Example 4, 2-[3-(4-Ethyl-benzyl)-3H-benzoimidazol-4-yloxy]-β-D-glucopyranoside] |  |  | 16 | 1120 |
| COc1ccc(CCn2cnc3cccc(OC4OC(CO)C(O)C(O)C4O)c32)cc1 [Example 5, 2-{3-[2-(4-Methoxyphenyl)-ethyl]-3H-benzoimidazol-4-yloxy}-β-D-glucopyranoside] |  | 61 | 365 |  |
| COc1ccc(CCn2c(=O)[nH]c3cccc(OC4OC(CO)C(O)C(O)C4O)c32)cc1 (stereo not drawn) [Example 6] | 18 |  |  |  |
| OCC1OC(Oc2cccc3ncn(CCc4ccc5c(c4)CCO5)c23)C(O)C(O)C1O (stereo not drawn) [Example 7, 2-{3-[2-(2,3-Dihydro-benzofuran-5-yl)-ethyl]-3H-benzoimidazol-4-yloxy}β-D glucopyranoside] |  |  | 38 | 700 |
| CCc1ccc(Cn2cnc3cc(C)cc(O[C@@H]4O[C@H](CO)[C@@H](O)[C@H](O)[C@H]4O)c32)cc1 [Example 8, 2-[3-(4-Ethyl-benzyl)-6-methyl-3H-benzoimidazol-4-yloxy]-β-D-glucopyranoside] |  |  | 61 | 1120 |
| COc1ccc(CCn2nnc3cccc(OC4OC(CO)C(O)C(O)C4O)c32)cc1 [Example 9, 2-{3-[2-(4-methoxy-phenyl)-ethyl]-3H-benzotriazol-4-yloxy}-β-D-glucopyranoside] |  | 40 | 390 |  |
| CCc1ccc(Cn2nnc3cccc(OC4OC(CO)C(O)C(O)C4O)c32)cc1 [Example 10, 2-[3-(4-Ethyl-benzyl)-3H-benzotriazol-4-yloxy]-β-D-glucopyranoside] |  |  | 8 | 590 |
